According to patent US7902156B2 (Angiochem Inc., priority 2005, dated 2011):
Where two headings read alike, the source gives them in different places. Residues, ends and D or L forms follow the SMILES beside them. No end group written: not given here.

Experiments:
[1] = test system: in vitro model of the BBB (co-culture of bovine brain capillary endothelial cells and rat glial cells); experiment: First level screening: peptide passage in the in vitro BBB model, Coomassie blue detection; details: 90 minutes at 37° C.
Source text: An in vitro model was used for screening assay and for mechanistic studies of drug transport to the brain. […] The model consists of a co-culture of bovine brain capillary endothelial cells and rat glial cells. It presents ultrastructural features characteristic of brain endothelium including tight junctions, lack of fenestration, lack of transendothelial channels, low permeability for hydrophilic molecules and a high electrical resistance.
The in vitro model of BBB was established by using a co-culture of BBCECs and astrocytes. Prior to cell culture, plate inserts (Millicell-PC 3.0 μM; 30-mm diameter) were coated on the upper side with rat tail collagen. They were then set in six-well microplates containing the astrocytes and BBCECs were plated on the upper side of the filters in 2 mL of co-culture medium. This BBCEC medium was changed three times a week. Under these conditions, differentiated BBCECs formed a confluent monolayer 7 days later. Experiments were performed between 5 and 7 days after confluence was reached. The permeability coefficient for sucrose was measured to verify the endothelial permeability.
Briefly, after removing the meninges, the brain tissue was forced gently through an 82 μm nylon sieve. Astrocytes were plated on six-well microplates at a concentration of 1.2×10^5 cells/mL in 2 mL of optimal culture medium (DMEM) supplemented with 10% heat inactivated fetal bovine serum. The medium was changed twice a week.
Bovine brain capillary endothelial cells (BBCECs) were obtained from Cellial Technologies. The cells were cultured in the presence of DMEM medium supplemented with 10% (v/v) horse serum and 10% heat-inactivated calf serum, 2 mM of glutamine, 50 μg/mL of gentamycin, and 1 ng/mL of basic fibroblast growth factor, added every other day.
Each peptide was added to the upper side of the inserts covered or non-covered with endothelial cells for 90 minutes at 37° C. […] After 90 minutes of transcytosis, a volume of 50 μl from the basolateral side of the filters covered with endothelial cells (+) or non-covered (−) was also loaded on Tricine gels. To visualize the peptides gels were stained with Coomassie blue.

[2] = test system: in vitro model of the BBB (bovine brain capillary endothelial cells); experiment: Second level screening: [125I]-peptide passage in the in vitro BBB model (cpm ratios)
Experimental: This BBCEC medium was changed three times a week.
The medium was changed twice a week.
Briefly, the selected peptides were iodinated with standard procedures using iodo-beads from Sigma. Two iodo-beads were used for each protein. […] The iodination for each peptide was initiated by adding 100 μg (80-100 μl) of the bead suspension. […] Fractions of 0.5 ml were collected and the radioactivity in 5 μl of each fraction was measured.
The iodinated peptides were also investigated with the in vitro model of the BBB. […] Results were expressed as cpm ratios.

brain tumor model = details: injected alone at the maximal tolerated dose (54 mg/kg); cited from earlier work
[3] = test system: in vitro BBB model (BBCEC monolayers grown on filters in the presence of astrocytes); experiment: Permeability coefficient (Pe) / transcytosis capacity in the in vitro BBB model; assay type: in vitro ADME, bovine; details: third level of selection, peptide at 250 nM
Experimental: At different times, inserts were placed into another well.
Transcytosis capacity of Aprotinin-Paclitaxel conjugate was determined and is reported below in Table 5.

mouse brain = experiment: In situ cerebral perfusion with post-perfusion capillary depletion; assay type: in vivo, mice; details: perfusion 5 min; for Volume of distribution, Capillaries % / Volume of distribution, Parenchyma %: share of homogenate; for Volume of distribution, Homogenate: total brain
Source text: The in situ cerebral perfusion (in mice) was used as the fourth level of selection to select the best peptides. This procedure also distinguishes between compounds remaining in the brain vascular compartment from those having crossed the abluminal endothelial membrane to enter the brain parenchyma. Indeed, the technique of post-perfusion capillary depletion allows to measure whether the molecule really crosses the endothelium to enter the brain parenchyma.

[4] = [125I]-peptide, cpm in bottom chamber / total cpm added, filter covered with endothelial cells, 90 minutes at 37° C.

Row | Molecule | Peptide detected in the lower side of the chambers by Coomassie blue staining [1] | Permeability coefficient (Pe) [3] | Volume of distribution, Capillaries (mouse brain) | Volume of distribution, Capillaries % (mouse brain) | Volume of distribution, Homogenate (mouse brain) | further results
1 | C[C@@H](O)[C@H](N)C(=O)N[C@@H](Cc1ccccc1)C(=O)N[C@@H](Cc1ccccc1)C(=O)N[C@@H](Cc1ccc(O)cc1)C(=O)NCC(=O)NCC(=O)N[C@@H](CO)C(=O)N[C@@H](CCCNC(=N)N)C(=O)NCC(=O)N[C@@H](CCCCN)C(=O)N[C@@H](CCCNC(=N)N)C(=O)N[C@@H](CC(N)=O)C(=O)N[C@@H](CC(N)=O)C(=O)N[C@@H](Cc1ccccc1)C(=O)N[C@@H](CCCCN)C(=O)N[C@H](C(=O)N[C@@H](CCC(=O)O)C(=O)N[C@@H](CCC(=O)O)C(=O)N[C@@H](Cc1ccc(O)cc1)C(=O)O)[C@@H](C)O [Peptide 70, T F F Y G G S R G K R N N F K T E E Y] | detected in the lower side of the chambers |  |  |  |  | 
2 | C[C@@H](O)[C@H](NC(=O)[C@H](CCCCN)NC(=O)[C@H](Cc1ccccc1)NC(=O)[C@H](CC(N)=O)NC(=O)[C@H](CC(N)=O)NC(=O)[C@H](CCCNC(=N)N)NC(=O)[C@H](CCCCN)NC(=O)CNC(=O)[C@H](CCCNC(=N)N)NC(=O)[C@H](CS)NC(=O)[C@H](CS)NC(=O)CNC(=O)[C@H](Cc1ccc(O)cc1)NC(=O)[C@H](Cc1ccccc1)NC(=O)[C@H](Cc1ccccc1)NC(=O)[C@@H](NC(=O)[C@@H](N)CS)[C@@H](C)O)C(=O)N[C@@H](CCC(=O)O)C(=O)N[C@@H](CCC(=O)O)C(=O)N[C@@H](Cc1ccc(O)cc1)C(=O)O [Peptide 71, CTFFYGCCRGKRNNFKTEEY] (H-CTFFYGCCRGKRNNFKTEEY-OH; N-terminus and C-terminus assumed) | detected in the lower side of the chambers |  |  |  |  | Ratio −cells/initial [2]: 0.072; Ratio +cells/−cells ([2]; [125I]-peptide in bottom chamber of filters covered with vs without endothelial cells): 0.37; Ratio +cells/initial [2, 4]: 0.027
3 | C[C@@H](O)[C@H](N)C(=O)N[C@@H](Cc1ccccc1)C(=O)N[C@@H](Cc1ccccc1)C(=O)N[C@@H](Cc1ccc(O)cc1)C(=O)NCC(=O)NCC(=O)N[C@@H](CS)C(=O)N[C@@H](CCCNC(=N)N)C(=O)NCC(=O)N[C@@H](CCCCN)C(=O)N[C@@H](CCCNC(=N)N)C(=O)N[C@@H](CC(N)=O)C(=O)N[C@@H](CC(N)=O)C(=O)N[C@@H](Cc1ccccc1)C(=O)N[C@@H](CCCCN)C(=O)N[C@H](C(=O)N[C@@H](CCC(=O)O)C(=O)N[C@@H](CCC(=O)O)C(=O)N[C@@H](Cc1ccc(O)cc1)C(=O)N[C@@H](CS)C(=O)O)[C@@H](C)O [Peptide 72, TFFYGGCRGKRNNFKTEEYC] (H-TFFYGGCRGKRNNFKTEEYC-OH; N-terminus and C-terminus assumed) | detected in the lower side of the chambers |  |  |  |  | 
4 | C[C@@H](O)[C@H](NC(=O)[C@H](CCCCN)NC(=O)[C@H](Cc1ccccc1)NC(=O)[C@H](CC(N)=O)NC(=O)[C@H](CC(N)=O)NC(=O)[C@H](CCCNC(=N)N)NC(=O)[C@H](CCCCN)NC(=O)CNC(=O)[C@H](CCCNC(=N)N)NC(=O)[C@H](CS)NC(=O)[C@H](CO)NC(=O)CNC(=O)[C@H](Cc1ccc(O)cc1)NC(=O)[C@H](Cc1ccccc1)NC(=O)[C@H](Cc1ccccc1)NC(=O)[C@@H](NC(=O)[C@@H](N)CS)[C@@H](C)O)C(=O)N[C@@H](CCC(=O)O)C(=O)N[C@@H](CCC(=O)O)C(=O)N[C@@H](Cc1ccc(O)cc1)C(=O)O [Peptide 73, CTFFYGSCRGKRNNFKTEEY] (H-CTFFYGSCRGKRNNFKTEEY-OH; N-terminus and C-terminus assumed) | detected in the lower side of the chambers |  |  |  |  | 
5 | CC(=O)O[C@H]1C(=O)[C@@]2(C)[C@H]([C@H](OC(=O)c3ccccc3)[C@]3(O)C[C@H](OC(=O)[C@H](O)[C@@H](NC(=O)c4ccccc4)c4ccccc4)C(C)=C1C3(C)C)[C@]1(OC(C)=O)CO[C@@H]1C[C@@H]2O [paclitaxel] |  |  |  |  |  | Mouse survival (brain tumor model): unable to increase mouse survival
6 | PFFYGGCRGKRNNFKTEEY [Peptide 75, P F F Y G G C R G K R N N F K T E E Y] | detected in the lower side of the chambers |  |  |  |  | 
7 | R F K Y G G C L G N K N N Y L R L K Y (RFKYGGCLGNKNNYLRLKY-NH2) [Peptide 91] | detected in the lower side of the chambers | highest Pe | 24 ml/100 g | 59% | 47 ml/100 g | Ratio +cells/initial [2]: 0.158; Ratio −cells/initial [2]: 0.406
8 | RFKYGGCLGNKNNFLRLKY [Peptide 90, R F K Y G G C L G N K N N F L R L K Y] | detected in the lower side of the chambers | highest Pe | 76 ml/100 g | 88% | 87 ml/100 g | Volume of distribution, Parenchyma (mouse brain): 11 ml/100 g; Volume of distribution, Parenchyma % (mouse brain): 12%
9 | T F F Y G G C R G K R N N F K T K E Y (TFFYGGCRGKRNNFKTKEY-NH2) [Peptide 76] | detected in the lower side of the chambers | highest Pe | 16 ml/100 g | 40% | 40 ml/100 g | Ratio +cells/initial [2]: 0.084; Ratio −cells/initial [2]: 0.222
10 | TFFYGGCRAKRNNFKRAKY-NH2 [Peptide 5, T F F Y G G C R A K R N N F K R A K Y] | detected in the lower side of the chambers | highest Pe | 217 ml/100 g | 73% | 312 ml/100 g | Ratio +cells/initial [2, 4]: 0.051
11 | TFFYGGCRGKKNNFKRAKY [Peptide 8, T F F Y G G C R G K K N N F K R A K Y] | detected in the lower side of the chambers | highest Pe | 204 ml/100 g | 82% | 250 ml/100 g | Volume of distribution, Parenchyma (mouse brain): 46 ml/100 g; Volume of distribution, Parenchyma % (mouse brain): 18%
12 | TFFYGGCRGKRNNFKTEEY-NH2 [Peptide 67, T F F Y G G C R G K R N N F K T E E Y] | detected in the lower side of the chambers | highest Pe | 13 ml/100 g | 34% | 38 ml/100 g | 
13 | TFFYGGCRGKRNNFKTKRY [Peptide 78, T F F Y G G C R G K R N N F K T K R Y] | detected in the lower side of the chambers | highest Pe | 181 ml/100 g | 90% | 198 ml/100 g | Volume of distribution, Parenchyma (mouse brain): 16 ml/100 g; Volume of distribution, Parenchyma % (mouse brain): 10%
14 | TFFYGGCRGNRNNFLTAEY [Peptide 45, T F F Y G G C R G N R N N F L T A E Y] | detected in the lower side of the chambers |  |  |  |  | 
15 | TFFYGGKRGKRNNFKRAKY [Peptide 82, T F F Y G G K R G K R N N F K R A K Y] | detected in the lower side of the chambers |  |  |  |  | 
16 | TFFYGGKRGKRNNFKREKY [Peptide 81, T F F Y G G K R G K R N N F K R E K Y] | detected in the lower side of the chambers |  |  |  |  | 
17 | TFFYGGKRGKRNNFKTAEY [Peptide 79, T F F Y G G K R G K R N N F K T A E Y] | detected in the lower side of the chambers | highest Pe | 52 ml/100 g | 74% | 70 ml/100 g | Volume of distribution, Parenchyma (mouse brain): 18 ml/100 g; Volume of distribution, Parenchyma % (mouse brain): 26%
18 | TFFYGGKRGKRNNFKTEEY [Peptide 77, T F F Y G G K R G K R N N F K T E E Y] | detected in the lower side of the chambers |  |  |  |  | 
19 | TFFYGGSRGNRNNFKTAKY [Peptide 25, T F F Y G G S R G N R N N F K T A K Y] |  |  | 1082 ml/100 g | 95% | 1141 ml/100 g | Volume of distribution, Parenchyma (mouse brain): 60 ml/100 g; Volume of distribution, Parenchyma % (mouse brain): 5%
